In US20260356851A1, “TRICYCLIC COMPOUNDS AND USES THEREOF” (HUTCHMED LIMITED, priority 2023, published 2026):
Where two headings read alike, the source gives them in different places.

Tests used:
Format in all cases: cell-based
[1] = target: T1, pERK1/2 (Thr202/Tyr204), NCI-1H441 (KRAS G12V) (Homo sapiens, UniProt P01116, G12V); assay: Assay of intracellular pERK1/2 (Thr202/Tyr204) phosphorylation in NCI-H441 cells (KRAS G12V)
T1 construct: pERK1/2 HTRF read-out
Procedure, shortened: (§1)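 HTRF detection of Thr202/Tyr204-phosphorylated ERK1/2 (665/615 nm ratio) in lysates from cells treated 2 days with serially 3-fold diluted compound.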

[2] = target: T2, pERK1/2 (Thr202/Tyr204), NCI-1H358 (KRAS G12C) (Homo sapiens, UniProt P01116, G12C); assay: Assay of intracellular pERK1/2 (Thr202/Tyr204) phosphorylation in NCI-H358 cells (KRAS G12C)
T2 construct: pERK1/2 HTRF read-out
T2 sequence (P01116 1-188 isoform P01116-2 G12C): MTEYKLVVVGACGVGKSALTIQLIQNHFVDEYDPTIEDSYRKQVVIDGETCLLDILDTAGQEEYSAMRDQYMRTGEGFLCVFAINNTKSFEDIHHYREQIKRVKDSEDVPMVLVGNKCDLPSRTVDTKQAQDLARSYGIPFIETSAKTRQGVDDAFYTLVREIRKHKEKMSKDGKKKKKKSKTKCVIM
Procedure, shortened: as §1

[3] = target: T3, pERK1/2 (Thr202/Tyr204), PANC-1 (KRAS G121D) (Homo sapiens, UniProt P01116, G12D); assay: Assay of intracellular pERK1/2 (Thr202/Tyr204) phosphorylation in PANC-1 cells (KRAS G12D)
T3 construct: pERK1/2 HTRF read-out
T3 sequence (P01116 1-188 isoform P01116-2 G12D): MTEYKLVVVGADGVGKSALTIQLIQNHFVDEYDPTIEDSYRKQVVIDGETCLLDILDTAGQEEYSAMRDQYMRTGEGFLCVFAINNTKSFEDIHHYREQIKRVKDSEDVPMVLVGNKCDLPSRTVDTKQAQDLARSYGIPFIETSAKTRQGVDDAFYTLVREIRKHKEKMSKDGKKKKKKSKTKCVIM
Procedure, shortened: as §1

[4] = pERK1/2, 2 days, read-out: NCI-H441 (KRAS G12V) IC50
[5] = pERK1/2, 2 days, read-out: NCI-H358 (KRAS G12C) IC50
[6] = pERK1/2, 2 days, read-out: PANC-1 (KRAS G12D) IC50

T1 sequence (P01116 1-188 isoform P01116-2 G12V): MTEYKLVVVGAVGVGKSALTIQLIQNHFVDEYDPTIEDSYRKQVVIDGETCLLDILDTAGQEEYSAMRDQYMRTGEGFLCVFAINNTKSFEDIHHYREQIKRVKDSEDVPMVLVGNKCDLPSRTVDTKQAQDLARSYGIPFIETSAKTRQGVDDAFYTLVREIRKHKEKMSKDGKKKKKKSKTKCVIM

SMILES	IC50 [1, 4]	IC50 [2, 5]	IC50 [3, 6]	IC50 ([1]; read-out: NCI-H441 (KRAS G12V) IC50, pERK1/2, 2 days)	IC50 ([2]; read-out: NCI-H358 (KRAS G12C) IC50, pERK1/2, 2 days)	IC50 ([3]; read-out: PANC-1 (KRAS G12D) IC50, pERK1/2, 2 days)
CC(c1cccnc1N)N1CCOc2nc(-c3cc(N)cc(F)c3C(F)(F)F)c(F)c3nc(OC[C@@H]4C[C@@H](F)CN4C)nc1c23 (single isomer, unassigned) [Compound 92, 3-((R or S)-1-(5-(5-amino-3-fluoro-2-(trifluoromethyl)phenyl)-4-fluoro-2-(((2S,4R)-4-fluoro-1-methylpyrrolidin-2-yl)methoxy)-8,9-dihydro-10H-7-oxa-1,3,6,10-tetraazacyclohepta[de]naphthalen-10-yl)ethyl)pyridin-2-amine]	2 nM	1 nM	58 nM			
[2H]C([2H])(Oc1nc2c3c(nc(-c4cc(O)cc(Cl)c4C4CC4)c(F)c3n1)OCCN2[C@@H](C)c1cccnc1N)[C@@H]1C[C@@H](F)CN1C([2H])([2H])[2H] (single isomer, unassigned) [Compound 143, 3-(10-((R or S)-1-(2-aminopyridin-3-yl)ethyl)-4-fluoro-2-(((2S,4)-4-fluoro-1-(methyl-d3)pyrrolidin-2-yl)methoxy-d2)-9,10-dihydro-8H-7-oxa-1,3,6,10-tetraazacyclohepta[de]naphthalen-5-yl)-5-chloro-4-cyclopropylphenol]	2 nM	0.5 nM	21 nM			
[2H]C1([2H])Oc2nc(-c3cc(N)c(F)c(C)c3C(F)(F)F)c(F)c3nc(OC[C@@]45CCCN4C[C@H](F)C5)nc(c23)N(C(C)c2cccnc2N)C1([2H])[2H] (single isomer, unassigned) [Compound 200, 3-((R or S)-1-(5-(5-amino-4-fluoro-3-methyl-2-(trifluoromethyl)phenyl)-4-fluoro-2-(((2R,7aS)-2-fluorotetrahydro-1H-pyrrolizin-7a(5H)-yl)methoxy)-8,9-dihydro-10H-7-oxa-1,3,6,10-tetraazacyclohepta[de]naphthalen-10-yl-8,8,9,9-d4)ethyl)pyridin-2-amine]	10 nM	7 nM	63 nM			

Second part, the compound after the results:

IC50 [1, 4]	IC50 [2, 5]	IC50 [3, 6]	IC50 ([1]; read-out: NCI-H441 (KRAS G12V) IC50, pERK1/2, 2 days)	IC50 ([2]; read-out: NCI-H358 (KRAS G12C) IC50, pERK1/2, 2 days)	IC50 ([3]; read-out: PANC-1 (KRAS G12D) IC50, pERK1/2, 2 days)	SMILES
0.5 nM	0.2 nM	0.5 nM				Cc1cc(N)cc(-c2nc3c4c(nc(OC[C@@]56CCCN5C/C(=C\F)C6)nc4c2F)N(C(C)c2cccnc2N)CCO3)c1C(F)(F)F (stereo partly drawn) [Compound 225]
			> 100 nM	> 100 nM	> 100 nM	CC(c1cccn2ccnc12)N1c2nc(OC[C@@]34CCCN3C[C@H](F)C4)nc3c(F)c(-c4cc(O)cc5ccc(F)c(F)c45)nc(c23)OC[C@@H]1C (stereo partly drawn) [Compound 310, (*)5,6-Difluoro-4-((9S)-4-fluoro-2-(((2R,7aS)-2-fluorotetrahydro-1H-pyrrolizin-7a(5H)-yl)methoxy)-10-(1-(imidazo[1,2-a]pyridin-8-yl)ethyl)-9-methyl-9,10-dihydro-8H-7-oxa-1,3,6,10-tetraazacyclohepta[de]naphthalen-5-yl)naphthalen-2-ol]
0.6 nM	0.2 nM	0.2 nM				Cc1cc2[nH]nc(C)c2c(-c2nc3c4c(nc(OC[C@@]56CCCN5C[C@H](F)C6)nc4c2F)N(C(C)c2cccnc2N)[C@@H](C)CO3)c1C(F)(F)F (stereo partly drawn) [Compound 378]
> 100 nM	> 100 nM	> 100 nM				CCC(c1cccnc1N)N1CCOc2nc(-c3cc(N)c(F)c(F)c3C(F)(F)F)c(F)c3nc(OC[C@@]45CCCN4C[C@H](F)C5)nc1c23 (single isomer, unassigned) [Compound 217, 3-((R or S)-1-(5-(5-amino-3,4-difluoro-2-(trifluoromethyl)phenyl)-4-fluoro-2-(((2R,7aS)-2-fluorotetrahydro-1H-pyrrolizin-7a(5H)-yl)methoxy)-8,9-dihydro-10H-7-oxa-1,3,6,10-tetraazacyclohepta[de]naphthalen-10-yl)propyl)pyridin-2-amine]
